Assay results from patent US7622469B2, “2,4-diamino-1,3,5-triazine derivatives” (Hamari Chemicals, Ltd., priority 2002, dated 2009).

Legend:
P. aeruginosa KM 97-5 [1] = assay: Bactericidal activity test (MBC, phenol coefficient measuring method); assay type: cell-based
Procedure: (§1) As a test bacterium, the same bacteria species as those of the antibacterial activity test were used; as a medium to be used, a SCD medium (manufactured by Eiken Chemical Co., Ltd.) was used for pre-culture medium; and a heart infusion bouillon medium (manufactured by Eiken Chemical Co., Ltd.) was used as a medium for growing a live bacterium in a test solution after bactericidal treatment. One platinum loop of a test bacterium was inoculated into 20 ml of a medium, and static culture was carried out at 37° C. for 18 to 20 hours, and the cells were adjusted with a sterilized physiological saline to 1×10^7/ml, which was used as a test bacterium solution.
(§2) Then, a solution of each compound in methanol was subjected to ½ stepwise dilution with sterilized water, each 5 ml was dispensed into a test tube, 0.5 ml of the previously prepared test bacterium solution was added thereto, and the mixture was blended well. After 1 minute, 3 minutes and 5 minutes has passed, 5 μl of the test solution was collected and inoculated into 2 ml of a heart infusion bouillon medium, this was cultured at 37° C. for 40 to 48 hours, and the presence or absence of growth of a bacterium was determined. A test was performed three times, a minimum concentration at which growth of a bacterium was not recognized two or more times was adopted as a minimal bactericidal concentration (MBC value).
(§3) Numerical values in Tables represent MBC expressed in μg/ml unit.

P. aeruginosa PAO-1 [2] = assay: as above; assay type: cell-based
Procedure: as §1, §2, §3

P. aeruginosa No. 12 [3] = assay: as above; assay type: cell-based
Procedure: as §1, §2, §3

S. aureus 209PJC [4] = assay: as above; assay type: cell-based
Procedure: as §1, §2, §3

E. coli NIHJ JC-2 [5] = assay: as above; assay type: cell-based
Procedure: as §1, §2, §3

P. aeruginosa KM 97-5 [6] = assay: Antibacterial activity test (MIC); assay type: cell-based; conditions: Mueller-Hinton Broth, 37° C., 20 to 24 hours
In short: (§4)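 Broth dilution MIC per Japanese Society of Chemotherapy method, in Mueller-Hinton Broth with inoculum of 10^5/ml from 16–20 h cultures at 37° C. Compound (methanol-dissolved) tested at 100 μg/ml and 2^n-fold (n=−10 to 1) twofold steps; MIC expressed in μg/ml.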

P. aeruginosa PAO-1 [7] = assay: Antibacterial activity test (MIC); assay type: cell-based; conditions: Mueller-Hinton Broth, 37° C., 20 to 24 hours
In short: as §4

P. aeruginosa No. 12 [8] = assay: Antibacterial activity test (MIC); assay type: cell-based; conditions: Mueller-Hinton Broth, 37° C., 20 to 24 hours
In short: as §4

S. aureus 209PJC [9] = assay: Antibacterial activity test (MIC); assay type: cell-based; conditions: Mueller-Hinton Broth, 37° C., 20 to 24 hours
In short: as §4

E. coli NIHJ JC-2 [10] = assay: Antibacterial activity test (MIC); assay type: cell-based; conditions: Mueller-Hinton Broth, 37° C., 20 to 24 hours
In short: as §4

MRSA KM 97-108 [11] = assay: Bactericidal activity test (MBC, phenol coefficient measuring method); assay type: cell-based, methicillin-resistant Staphylococcus aureus
Procedure: as §1, §2, §3

MRSA KM 97-53 [12] = assay: as above; assay type: cell-based, methicillin-resistant Staphylococcus aureus
Procedure: as §1, §2, §3

MRSA 97-115 [13] = assay: as above; assay type: cell-based, methicillin-resistant Staphylococcus aureus
Procedure: as §1, §2, §3

MRSA KM 97-108 [14] = assay: Antibacterial activity test (MIC); assay type: cell-based, methicillin-resistant Staphylococcus aureus; conditions: Mueller-Hinton Broth, 37° C., 20 to 24 hours
In short: as §4

MRSA KM 97-53 [15] = assay: Antibacterial activity test (MIC); assay type: cell-based, methicillin-resistant Staphylococcus aureus; conditions: Mueller-Hinton Broth, 37° C., 20 to 24 hours
In short: as §4

MRSA 97-115 [16] = assay: Antibacterial activity test (MIC); assay type: cell-based, methicillin-resistant Staphylococcus aureus; conditions: Mueller-Hinton Broth, 37° C., 20 to 24 hours
In short: as §4

VRE 49 [17] = assay: Bactericidal activity test (MBC, phenol coefficient measuring method); assay type: cell-based, vancomycin-resistant enterococci
Procedure: as §1, §2, §3

VRE 49 [18] = assay: Antibacterial activity test (MIC); assay type: cell-based, vancomycin-resistant enterococci; conditions: Mueller-Hinton Broth, 37° C., 20 to 24 hours
Procedure: Regarding compounds obtained in respective Working Examples, in order to investigate antibacterial activity, minimal inhibitory concentration (MIC) was determined according to a standard method of Japanese Society of Chemotherapy.
As a test bacterium, nine kinds of S. aureus 209PJC, MRSA 97-115, MRSA KM 97-53, MRSA KM97-108, VRE 49, E. coli NIHJ JC-2, P. aeruginosa PAO-1, P. aeruginosa No. 12, P. aeruginosa KM97-5 were used and, as a medium, Mueller-Hinton Broth (DIFCO) was used. One platinum loop of a test bacterium was inoculated into 20 ml of a medium, and static culture was carried out at 37° C. for 16 to 20 hours, and then each bacterium species was diluted with a sterilized physiological saline to 10^5/ml, which was used as a test bacterium solution.
Then, each compound was dissolved in methanol, subjected to ½ stepwise dilution with a medium to prepare a medium for measuring sensitivity, and each 2 ml was dispensed into a test tube. A compound concentration in a medium was adjusted to 100 μg/ml and its 2^n-fold (n=−10 to 1).
Numerical values in Tables represent MIC expressed in μg/ml unit.

Row | minimal inhibitory concentration (MIC) (P. aeruginosa KM 97-5 [6]) | minimal inhibitory concentration (MIC) (P. aeruginosa No. 12 [8]) | minimal inhibitory concentration (MIC) (S. aureus 209PJC [9]) | minimal inhibitory concentration (MIC) (E. coli NIHJ JC-2 [10]) | Structure (SMILES) | minimal bactericidal concentration (MBC) (P. aeruginosa KM 97-5 [1]; 1 min) | minimal bactericidal concentration (MBC) (P. aeruginosa KM 97-5 [1]; 3 min) | minimal bactericidal concentration (MBC) (P. aeruginosa KM 97-5 [1]; 5 min) | minimal bactericidal concentration (MBC) (P. aeruginosa No. 12 [3]; 1 min) | minimal bactericidal concentration (MBC) (P. aeruginosa No. 12 [3]; 3 min) | minimal bactericidal concentration (MBC) (P. aeruginosa No. 12 [3]; 5 min) | minimal bactericidal concentration (MBC) (S. aureus 209PJC [4]; 1 min) | minimal bactericidal concentration (MBC) (S. aureus 209PJC [4]; 3 min) | minimal bactericidal concentration (MBC) (S. aureus 209PJC [4]; 5 min) | minimal bactericidal concentration (MBC) (E. coli NIHJ JC-2 [5]; 1 min) | minimal bactericidal concentration (MBC) (E. coli NIHJ JC-2 [5]; 3 min) | minimal bactericidal concentration (MBC) (E. coli NIHJ JC-2 [5]; 5 min) | minimal bactericidal concentration (MBC) (MRSA KM 97-108 [11]; 1 min) | minimal bactericidal concentration (MBC) (MRSA KM 97-108 [11]; 3 min) | minimal bactericidal concentration (MBC) (MRSA KM 97-108 [11]; 5 min) | minimal bactericidal concentration (MBC) (MRSA KM 97-53 [12]; 1 min) | other results
1 | 25 µg/mL | 25 µg/mL | 0.4 µg/mL | 12.5 µg/mL | CC(=O)O.CCCCCCCCNC1=NC(C)(C)N=C(NCc2ccc(C)cc2)N1 [compound 58] | 6.3 µg/mL | 3.1 µg/mL | 3.1 µg/mL | 6.3 µg/mL | 6.3 µg/mL | 3.1 µg/mL | 6.3 µg/mL | 3.1 µg/mL | 3.1 µg/mL | 12.5 µg/mL | 6.3 µg/mL | 6.3 µg/mL | 50 µg/mL | 50 µg/mL | 25 µg/mL | 50 µg/mL | minimal bactericidal concentration (MBC) (P. aeruginosa PAO-1 [2]; 1 min): 12.5 µg/mL; minimal bactericidal concentration (MBC) (P. aeruginosa PAO-1 [2]; 3 min): 6.3 µg/mL; minimal bactericidal concentration (MBC) (P. aeruginosa PAO-1 [2]; 5 min): 3.1 µg/mL; minimal inhibitory concentration (MIC) (P. aeruginosa PAO-1 [7]): 12.5 µg/mL; minimal bactericidal concentration (MBC) (MRSA KM 97-53 [12]; 3 min): 50 µg/mL; minimal bactericidal concentration (MBC) (MRSA KM 97-53 [12]; 5 min): 25 µg/mL; minimal bactericidal concentration (MBC) (MRSA 97-115 [13]; 1 min): 25 µg/mL; minimal bactericidal concentration (MBC) (MRSA 97-115 [13]; 3 min): 25 µg/mL; minimal bactericidal concentration (MBC) (MRSA 97-115 [13]; 5 min): 12.5 µg/mL; minimal inhibitory concentration (MIC) (MRSA KM 97-108 [14]): 1.6 µg/mL; minimal inhibitory concentration (MIC) (MRSA KM 97-53 [15]): 1.6 µg/mL; minimal inhibitory concentration (MIC) (MRSA 97-115 [16]): 0.4 µg/mL; minimal bactericidal concentration (MBC) (VRE 49 [17]; 1 min): 25 µg/mL; minimal bactericidal concentration (MBC) (VRE 49 [17]; 3 min): 25 µg/mL; minimal bactericidal concentration (MBC) (VRE 49 [17]; 5 min): 12.5 µg/mL; minimal inhibitory concentration (MIC) (VRE 49 [18]): 1.6 µg/mL
2 | 50 µg/mL | 50 µg/mL | 0.8 µg/mL | 12.5 µg/mL | CC(=O)O.CCCCCCCCNC1=NC(C)(C)N=C(NCCCCCC)N1 [compound 68] | 12.5 µg/mL | 6.3 µg/mL | 6.3 µg/mL | 3.1 µg/mL | 3.1 µg/mL | 1.6 µg/mL | 12.5 µg/mL | 6.3 µg/mL | 6.3 µg/mL | 12.5 µg/mL | 6.3 µg/mL | 6.3 µg/mL | 50 µg/mL | 25 µg/mL | 25 µg/mL | 50 µg/mL | minimal bactericidal concentration (MBC) (P. aeruginosa PAO-1 [2]; 1 min): 6.3 µg/mL; minimal bactericidal concentration (MBC) (P. aeruginosa PAO-1 [2]; 3 min): 3.1 µg/mL; minimal bactericidal concentration (MBC) (P. aeruginosa PAO-1 [2]; 5 min): 1.6 µg/mL; minimal inhibitory concentration (MIC) (P. aeruginosa PAO-1 [7]): 50 µg/mL; minimal bactericidal concentration (MBC) (MRSA KM 97-53 [12]; 3 min): 25 µg/mL; minimal bactericidal concentration (MBC) (MRSA KM 97-53 [12]; 5 min): 25 µg/mL; minimal bactericidal concentration (MBC) (MRSA 97-115 [13]; 1 min): 12.5 µg/mL; minimal bactericidal concentration (MBC) (MRSA 97-115 [13]; 3 min): 6.3 µg/mL; minimal bactericidal concentration (MBC) (MRSA 97-115 [13]; 5 min): 6.3 µg/mL; minimal inhibitory concentration (MIC) (MRSA KM 97-108 [14]): 1.6 µg/mL; minimal inhibitory concentration (MIC) (MRSA KM 97-53 [15]): 1.6 µg/mL; minimal inhibitory concentration (MIC) (MRSA 97-115 [16]): 0.8 µg/mL; minimal bactericidal concentration (MBC) (VRE 49 [17]; 1 min): 25 µg/mL; minimal bactericidal concentration (MBC) (VRE 49 [17]; 3 min): 25 µg/mL; minimal bactericidal concentration (MBC) (VRE 49 [17]; 5 min): 12.5 µg/mL; minimal inhibitory concentration (MIC) (VRE 49 [18]): 1.6 µg/mL
3 | 12.5 µg/mL | 12.5 µg/mL | 0.2 µg/mL | 1.6 µg/mL | N=C(NCCCCCCNC(=N)NC(=N)Nc1ccc(Cl)cc1)NC(=N)Nc1ccc(Cl)cc1.O=C(O)[C@H](O)[C@@H](O)[C@H](O)[C@H](O)CO.O=C(O)[C@H](O)[C@@H](O)[C@H](O)[C@H](O)CO [Control drug, chlorhexidine gluconate, reference compound] | 31 µg/mL | 16 µg/mL | 8 µg/mL | 125 µg/mL | 32 µg/mL | 32 µg/mL | 62.5 µg/mL | 62.5 µg/mL | 62.5 µg/mL | 62.5 µg/mL | 31.3 µg/mL | 15.6 µg/mL | 500 µg/mL | 500 µg/mL | 500 µg/mL | 500 µg/mL | minimal bactericidal concentration (MBC) (MRSA KM 97-53 [12]; 3 min): 250 µg/mL; minimal bactericidal concentration (MBC) (MRSA KM 97-53 [12]; 5 min): 250 µg/mL; minimal bactericidal concentration (MBC) (MRSA 97-115 [13]; 1 min): 1000 µg/mL; minimal bactericidal concentration (MBC) (MRSA 97-115 [13]; 3 min): 250 µg/mL; minimal bactericidal concentration (MBC) (MRSA 97-115 [13]; 5 min): 125 µg/mL; minimal inhibitory concentration (MIC) (MRSA KM 97-108 [14]): 3.1 µg/mL; minimal inhibitory concentration (MIC) (MRSA KM 97-53 [15]): 3.1 µg/mL; minimal inhibitory concentration (MIC) (MRSA 97-115 [16]): 3.1 µg/mL; minimal bactericidal concentration (MBC) (VRE 49 [17]; 1 min): >1000 µg/mL; minimal bactericidal concentration (MBC) (VRE 49 [17]; 3 min): >1000 µg/mL; minimal bactericidal concentration (MBC) (VRE 49 [17]; 5 min): >1000 µg/mL; minimal inhibitory concentration (MIC) (VRE 49 [18]): 3.1 µg/mL
